Test [1] addresses T1, PKCε (Homo sapiens, UniProt Q02156).
T1 construct: purchased Calbiochem
T1 sequence (Q02156 1-737): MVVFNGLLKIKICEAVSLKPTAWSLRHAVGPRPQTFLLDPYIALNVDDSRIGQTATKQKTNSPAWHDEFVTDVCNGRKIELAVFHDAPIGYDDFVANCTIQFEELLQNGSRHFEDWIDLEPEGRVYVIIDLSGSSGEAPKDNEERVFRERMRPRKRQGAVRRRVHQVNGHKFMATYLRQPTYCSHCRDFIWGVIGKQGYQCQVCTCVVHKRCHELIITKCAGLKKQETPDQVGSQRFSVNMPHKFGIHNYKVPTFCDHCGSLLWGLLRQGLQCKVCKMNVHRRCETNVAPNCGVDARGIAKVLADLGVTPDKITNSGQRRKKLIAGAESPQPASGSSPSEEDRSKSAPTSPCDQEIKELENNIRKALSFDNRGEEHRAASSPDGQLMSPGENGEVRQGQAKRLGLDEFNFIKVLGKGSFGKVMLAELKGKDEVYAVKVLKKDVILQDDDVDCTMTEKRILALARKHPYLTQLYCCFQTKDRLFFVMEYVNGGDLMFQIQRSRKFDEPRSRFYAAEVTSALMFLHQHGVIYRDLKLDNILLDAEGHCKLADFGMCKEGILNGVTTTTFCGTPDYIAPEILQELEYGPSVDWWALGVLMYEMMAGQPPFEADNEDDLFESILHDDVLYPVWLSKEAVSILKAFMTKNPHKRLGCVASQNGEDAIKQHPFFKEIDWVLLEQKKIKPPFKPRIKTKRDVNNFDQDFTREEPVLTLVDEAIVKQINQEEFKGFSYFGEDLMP
Briefly: Protein kinase C assay, purified/recombinant PKC epsilon (32P incorporation into histones). It is filed as biochemical. How it is done:
Protein kinase C assay. Recombinant PKC (1 ng of alpha or epsilon isofonn) was mixed with the BR-101 (UCP-LA) in the presence of 10 micromoiar histones, 5 mM CaCl2, 1.2 μg/μl phosphatidyl-L-serine, 0.18 μg/μl 1,2-dioctanoyl-sn-glycerol (DAG), […], […] (pH 7.4), 0.8 tnIVI EDTA, 4 mM EGTA, 4% glycerol, 8 μg/ml aprotinin, 8 μ/ml leupeptin, and 2 mM benzamidine. 0.5 micro Ci [^y32P]ATP was added. The incubation mixture was incubated for 15 min at 37 degrees in a total volume of 10 microliters. The reaction was stopped by spotting the reaction mixtures on 1×2 cm strips of cellulose phosphate paper (Whatman P81) and immediately washing twice for 1 hr in 0.5% H3PO4. The cellulose phosphate strips were counted in a scintillation counter. In some experiments, phosphatidylserine, diacylglycerol, and/or calcium were removed.
Protein kinase C assay. Rat hippocampal cells were cultured and scraped in 0.2 ml homogenization buffer (20 triM Tris-HCl, pH 7.4, 50 mM NaF, 1 μg/ml leupeptin, and 0.1 mM PMSF) and homogenized by sonication in a Marsonix micro-probe sonicator (5 see, 10W). To measure PKC, 10 ul of cell homogenate or purified. PKC isozyme (purchased from Calbiochem) was incubated for 15 min at 37° C. in the presence of 10 μM histones, 4.89 mM CaCl2, 1.2 μg/μl phosphatidyl-L-serine, 0.18 μg/μl 1,2-dioctanoyl-sn-glycerol, 10 mM MgCl2, 20 mM HEPES (pH 7.4), 0.8 mM EDTA, 4 mM EGTA, 4% glycerol, 8 μg/ml aprotinin, 8 μg/ml leupeptin, and 2 mM benzamidine. 0.5 μCi [^γ-32P]ATP was added and ^32P-phosphoprotein formation was measured by adsorption onto phosphocellulose as described previously. Nelson and Alkon, J. Neurochemistry. 1995; 65: 2350-57. For measurements of activation by BR-101 (DCP-LA) and similar compounds, PKC activity was measured in the absence of diacylglycerol and phosphatidyl serine, as described by Kanno et al., and PKC δ, ε, η, and μ were measured in the absence of added EGTA and CaCl2, as described by Kanno et al., J. Lipid Res. 2006; 47: 1146-50. Low concentrations of Ca^2+ are used because high Ca^2+ interacts with the PKC phosphatidylserine binding site and prevents activation. For measurements of bryostatin activation, 1,2-diacylglycerol was omitted unless otherwise stated.
To determine their PKC isozyme specificity, the new compounds were preincubated with purified PKC for five minutes and the PKC activity was measured radiometrically.

Test [2] concerns Aβ. Briefly: Aβ levels in N2a neuroblastoma cells transfected with human APPSwe/PSID (Aβ1-42 ELISA). The note with it: for levels of intracellular Aβ / levels of secreted Aβ: 24 h incubation, various concentrations; for levels of intracellular Aβ: FIG. 7a; for levels of secreted Aβ: FIG. 7b; for concentration dependence of Aβ inhibition: BR-101 and BR-111 up to 10 to 100 μM. It is filed as cell-based, mouse. As to the method: Cell culture. Rat hippocampal H19-71GF-IR cells (ATCC, Manassas, Va.) were plated onto poly-L-lysine coated plates and grown at 35° C. in DMEM/10% FCS for several days until about 50% coverage was obtained. The cells were then induced to differentiate into a neuronal phenotype by replacing the medium with 5 ml N2 medium containing 10 ng/ml basic fibroblast growth factor at 39° C. and grown in T-75 flasks at 37° C. Human SH-SY5Y neuroblastoma cells (ATCC) were cultured in 45% F12K/45% MEM/10% FCS. Mouse N2A neuroblastoma cells were cultured in DMEM/10% FCS without glutamine. Rat hippocampal neurons from 18-day-old embryonic
AB Measurement and Cell Viability Assay. Aβ was measured using an Aβ1-42 human fluorimetric ELISA kit (Invitrogen) according to the manufacturer's instructions. Results were measured in a Biotek Synergy HT microplate reader. AlamarBlue and CyQuant NF (Invitrogen) according to the manufacturer's instructions.
To measure the effects of PKCε activation on Aβ production, we used mouse neuro2a (N2a) neuroblastoma cells transfected with human APPSwe/PSID, which produce large quantities of Aβ. Petanceska et al., J Neurochem. 1996; 74: 1878-84. […] With bryostatin, which activates PKC by binding to the diacylglycerol-binding site, the inhibition was biphasic, with concentrations of 20 nM or higher producing no net effect. This may be explained by the ability of this class of PKC activators to downregulate PKC when used at high concentrations.
For orientation: An ELISA detects its analyte on a solid surface through an enzyme-linked reagent.

Test [3] has as its system TACE. Briefly: TACE assay in N2a mouse neuroblastoma cells. It is filed as cell-based. The note with it: FIG. 9a. How it is done:
TACE Assay. TACE was measured by incubating 5 μl cell homogenate, 3 μl buffer (50 mM Tris-HCl 7.4 plus 25 mM NaCl plus 4% glycerol), and 1 of 100 μM TACE substrate IV (Aβz-LAQAVRSSSR-DPa) (Calbiochem) for 20 min at 37° in 1.5-ml polypropylene centrifuge tubes (Jin et al., Anal Biochem. 2002; 302: 269-75). The reaction was stopped by cooling to 4° C. The samples were diluted to 1 ml and the fluorescence was rapidly measured (ex=320 nm, em=420 nm) in a Spex Fluorolog 2 spectrofluorometer.

Data on two compounds can be found in patent US11820745B2, “PKC-activating compounds for the treatment of neurodegenerative diseases” (Synaptogenix, Inc., priority 2008, dated 2023).

Regarding `CCC1CC1CC1CC1CC1CC1CC1CC1CC1CC1CC1CC1CCC(=O)OC` (stereo not drawn) [BR-111, methyl-3-(2-((2-((2-((2-((2-((2-ethylcyclopropyl)methyl)cyclopropyl)methyl)cyclopropyl)methyl)-cyclopropyl)methyl)cyclopropyl)methyl)cyclopropyl)propanoate], in test [1] (FIG. 3), the “activation of purified PKCε” value is given as “activated purified PKCε to a similar extent” and the “concentration needed to activate PKC, times lower than for BR-101 (DCP-LA)” value is reported as “approx. 100 times”. In addition, in test [2], the “levels of intracellular Aβ” value is “markedly reduced”, the “levels of secreted Aβ” value is recorded as “markedly reduced” and the “concentration dependence of Aβ inhibition” value is “monotonically increasing inhibition”. The TACE activity entry in test [3] is “small increases”.
For the compound `CCCCCC1CC1CC1CC1CCCCCCCC(=O)O` (stereo not drawn) [BR-101, 8-[2-(2-pentyl-cyclopropylmethyl)-cyclopropyl]-octanoic acid], the “activation of PKCε” value in test [1] (at 10 μM, preincubated with purified PKC for five minutes) is given as “effective activator”. Also, the “activation of PKCε” value in test [1] (purified PKCε, lowest concentration tested (10 nM), FIG. 2) was 2.75 fold. Besides, in test [2], the “levels of intracellular Aβ” value was “markedly reduced”, the “levels of secreted Aβ” value is “markedly reduced” and the “concentration dependence of Aβ inhibition” value is “monotonically increasing inhibition”. Further, in test [3], the TACE activity result is “small increases”.
